The record followed here is ChEMBL document CHEMBL1201862, “PubChem BioAssay data set” (2004).

Assay [1] has as its target Eukaryotic translation initiation factor 4H (Homo sapiens, UniProt Q15056). Briefly: eIF4H binding inhibition – biochemical, uHTS, fluorescence polarization, translation initiation inhibitor project, primary screen (AID 2012). In general terms: Fluorescence polarisation rises when a labelled molecule tumbles more slowly, as on binding a larger partner.
Assay [2] addresses T1, SUMO-activating enzyme (Homo sapiens, UniProt Q9UBT2). Briefly: blockers of UBC9-mediated SUMO conjugation – biochemical, AlphaScreen, SUMOylation inhibitor project, confirmation (AID 2018). Type of assay: functional. (Bead proximity is the source of the signal in Alpha formats.)
For assay [3], the target named is T1, SUMO-activating enzyme. Briefly: blockers of SAE1/SAE2–UBC9 SUMO transfer – biochemical, HTRF, uHTS, primary screen (AID 2006). Type of assay: protein-complex assay.
Assay [4] concerns the target Polyadenylate-binding protein 1 (Homo sapiens, UniProt P11940). In words: blockers of PABP interaction with poly(A) – biochemical, fluorescence polarization, […] (AID 2014).
A further assay deals with H9c2. Briefly: cells. Type of assay: functional, cell-based. Conditions: Rattus norvegicus, H9c2, Myocardium.
For assay [5], the target named is T2, Carboxy-terminal domain RNA polymerase II polypeptide A small phosphatase 1 (Homo sapiens, UniProt Q9GZU7).
T2 sequence (Q9GZU7 whole entry): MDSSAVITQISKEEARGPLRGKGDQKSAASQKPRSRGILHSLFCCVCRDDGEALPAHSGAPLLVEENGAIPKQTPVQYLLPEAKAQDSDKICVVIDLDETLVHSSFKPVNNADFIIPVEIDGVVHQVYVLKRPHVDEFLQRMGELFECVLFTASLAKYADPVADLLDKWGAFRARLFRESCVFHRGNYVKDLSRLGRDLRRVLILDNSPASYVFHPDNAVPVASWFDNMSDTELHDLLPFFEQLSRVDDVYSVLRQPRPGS
In words: CTDSP1 inhibitors, concentration-response, biochemical, absorbance readout, ultra-high-throughput screen actives (AID 540297). Type of assay: functional.

For assay [6], the target named is Tyrosine-protein phosphatase non-receptor type 11 (Homo sapiens, UniProt Q06124). Briefly: PTPN11 enzyme inhibitors – biochemical, selectivity assay for STEP inhibitor project, dose response (AID 602367). In kind it is functional. Conditions: read-out: IC50_Mean.
In assay [7] the target is Tyrosine-protein phosphatase non-receptor type 5 (Homo sapiens, UniProt P54829). In words: PTPN5 enzyme inhibition – biochemical, fluorescence intensity, uHTS hits, confirmation (AID 602372). In kind it is functional. To be noted: read-out: IC50_Mean.
The target in assay [8] is Dual specificity protein phosphatase 3 (Homo sapiens, UniProt P51452). In words: VHR phosphatase inhibition, dose response, selectivity assay for STEP inhibitor project, biochemical (AID 602374). In kind it is functional. To be noted: read-out: IC50_Mean.
Chain of Dual specificity protein phosphatase 3 (P51452 whole entry): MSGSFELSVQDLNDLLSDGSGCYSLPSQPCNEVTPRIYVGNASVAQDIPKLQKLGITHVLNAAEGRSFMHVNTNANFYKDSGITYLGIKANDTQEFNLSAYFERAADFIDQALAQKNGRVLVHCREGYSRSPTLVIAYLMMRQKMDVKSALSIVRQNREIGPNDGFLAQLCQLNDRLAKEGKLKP
Assay [9] concerns the target T3, Sentrin-specific protease 8 (Homo sapiens, UniProt Q96LD8).
T3 sequence (Q96LD8 whole entry): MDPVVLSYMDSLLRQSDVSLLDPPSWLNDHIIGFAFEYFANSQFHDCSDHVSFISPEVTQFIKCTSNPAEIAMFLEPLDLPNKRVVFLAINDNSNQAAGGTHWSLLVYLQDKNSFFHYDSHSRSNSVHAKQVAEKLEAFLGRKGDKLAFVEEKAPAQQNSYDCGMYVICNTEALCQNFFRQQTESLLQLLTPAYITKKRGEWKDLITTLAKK
In words: inhibition of human SENP8 cleavage activity – biochemical, luminescence, SAR follow-up (AID 504501). Type of assay: functional.

The target in another assay is T4, Caspase-3 (Homo sapiens, UniProt P42574).
T4 sequence (P42574 whole entry): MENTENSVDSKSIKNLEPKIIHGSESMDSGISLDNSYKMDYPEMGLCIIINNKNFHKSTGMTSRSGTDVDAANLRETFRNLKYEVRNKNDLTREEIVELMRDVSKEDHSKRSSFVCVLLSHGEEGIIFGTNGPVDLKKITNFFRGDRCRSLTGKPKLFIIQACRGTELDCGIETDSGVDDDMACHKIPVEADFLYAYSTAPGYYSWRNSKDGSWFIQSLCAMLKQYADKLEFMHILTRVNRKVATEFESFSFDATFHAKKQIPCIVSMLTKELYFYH
Briefly: SAR Analysis of small molecule inhibitors of Sentrin-specific proteases (SENPs) using a Caspase-3 Selectivity assay. [Related pubchem assays (depositor defined):AID2540, AID2599, AID434973, AID489001]. In kind it is functional.

Assay [10] concerns the target T5, Sentrin-specific protease 6 (Homo sapiens, UniProt Q9GZR1).
T5 sequence (Q9GZR1 whole entry): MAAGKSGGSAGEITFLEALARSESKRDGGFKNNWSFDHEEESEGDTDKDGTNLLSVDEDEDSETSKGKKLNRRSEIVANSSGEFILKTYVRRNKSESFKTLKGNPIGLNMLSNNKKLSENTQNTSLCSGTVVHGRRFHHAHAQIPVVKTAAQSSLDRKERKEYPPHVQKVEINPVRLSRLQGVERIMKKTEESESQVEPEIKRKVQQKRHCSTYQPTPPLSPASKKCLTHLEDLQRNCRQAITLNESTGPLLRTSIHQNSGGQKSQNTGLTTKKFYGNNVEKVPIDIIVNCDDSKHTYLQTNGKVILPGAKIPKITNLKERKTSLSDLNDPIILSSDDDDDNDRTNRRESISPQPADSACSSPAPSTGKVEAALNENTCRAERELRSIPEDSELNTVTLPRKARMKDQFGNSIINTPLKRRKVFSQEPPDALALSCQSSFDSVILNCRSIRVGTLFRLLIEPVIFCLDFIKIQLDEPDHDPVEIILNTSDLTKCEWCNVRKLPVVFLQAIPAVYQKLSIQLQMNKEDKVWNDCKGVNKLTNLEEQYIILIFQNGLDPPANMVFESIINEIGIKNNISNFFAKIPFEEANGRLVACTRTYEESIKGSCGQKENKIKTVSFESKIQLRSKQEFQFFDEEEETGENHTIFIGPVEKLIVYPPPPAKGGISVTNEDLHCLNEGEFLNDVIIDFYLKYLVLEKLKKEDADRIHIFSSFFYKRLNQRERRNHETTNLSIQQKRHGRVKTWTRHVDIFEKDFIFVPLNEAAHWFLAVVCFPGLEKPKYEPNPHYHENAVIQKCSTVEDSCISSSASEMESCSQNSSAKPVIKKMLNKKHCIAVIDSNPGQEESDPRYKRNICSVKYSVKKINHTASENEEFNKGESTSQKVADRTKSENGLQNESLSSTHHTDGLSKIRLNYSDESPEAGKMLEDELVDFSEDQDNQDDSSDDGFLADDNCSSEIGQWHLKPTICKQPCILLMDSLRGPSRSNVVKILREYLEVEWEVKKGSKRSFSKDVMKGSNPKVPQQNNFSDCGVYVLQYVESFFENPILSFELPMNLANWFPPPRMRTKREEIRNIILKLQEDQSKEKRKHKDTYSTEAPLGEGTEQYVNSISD
In words: SAR Analysis of small molecule inhibitors of Sentrin-specific protease 6 (SENP6) using a Luminescent assay. [Related pubchem assays (depositor defined):AID2582, AID2599]. In kind it is functional.

Assay [11] has as its system HEK293. In words: inhibition of NOD1-driven NF-kB reporter – cell-based, luminescence, uHTS, primary screen (AID 1578). In kind it is functional. To be noted: Homo sapiens.
For assay [12], the system named is HEK293. In words: cells. Type of assay: functional, cell-based. Conditions: Homo sapiens.
For assay [13], the system named is HEK293. Briefly: cells. Conditions: Homo sapiens. Type of assay: functional, cell-based. This is another data set of the same source.
Assay [14] deals with Nucleotide-binding oligomerization domain-containing protein 2 (Homo sapiens, UniProt Q9HC29). In words: inhibition of NOD2-driven NF-kB reporter – cell-based, luminescence, uHTS, HEK293 (AID 1566). Type of assay: functional.
Chain of Nucleotide-binding oligomerization domain-containing protein 2 (Q9HC29 whole entry, the tested form may be a part): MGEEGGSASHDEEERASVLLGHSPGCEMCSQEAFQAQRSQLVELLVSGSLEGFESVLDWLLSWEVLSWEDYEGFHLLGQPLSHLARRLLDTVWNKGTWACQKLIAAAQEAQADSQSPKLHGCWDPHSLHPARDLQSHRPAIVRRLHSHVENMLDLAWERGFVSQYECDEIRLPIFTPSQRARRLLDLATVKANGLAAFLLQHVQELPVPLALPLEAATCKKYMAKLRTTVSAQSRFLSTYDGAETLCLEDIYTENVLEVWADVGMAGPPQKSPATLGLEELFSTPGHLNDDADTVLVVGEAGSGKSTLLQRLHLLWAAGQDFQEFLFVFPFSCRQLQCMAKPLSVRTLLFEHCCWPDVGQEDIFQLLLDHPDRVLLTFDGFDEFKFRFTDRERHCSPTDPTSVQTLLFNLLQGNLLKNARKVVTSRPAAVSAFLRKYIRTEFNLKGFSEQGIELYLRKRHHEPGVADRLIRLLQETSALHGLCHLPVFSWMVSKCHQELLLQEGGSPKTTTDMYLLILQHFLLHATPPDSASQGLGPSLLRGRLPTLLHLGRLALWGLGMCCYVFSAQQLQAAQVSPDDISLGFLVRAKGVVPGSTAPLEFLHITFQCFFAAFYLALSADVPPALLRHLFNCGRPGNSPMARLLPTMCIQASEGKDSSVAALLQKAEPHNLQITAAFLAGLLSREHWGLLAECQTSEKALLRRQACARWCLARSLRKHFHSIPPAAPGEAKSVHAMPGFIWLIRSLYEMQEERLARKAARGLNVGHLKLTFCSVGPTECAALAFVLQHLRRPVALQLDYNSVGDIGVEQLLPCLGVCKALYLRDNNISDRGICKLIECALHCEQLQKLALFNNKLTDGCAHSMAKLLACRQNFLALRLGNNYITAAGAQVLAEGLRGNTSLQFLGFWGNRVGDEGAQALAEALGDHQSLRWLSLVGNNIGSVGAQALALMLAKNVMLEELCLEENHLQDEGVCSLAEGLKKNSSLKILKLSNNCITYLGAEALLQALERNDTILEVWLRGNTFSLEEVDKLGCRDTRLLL
Assay [15] concerns HEK293. Briefly: NOD2 signaling inhibitors in MDP-stimulated cells, cell-based, uHTS, luminescence (AID 2001). Type of assay: functional. Conditions: Homo sapiens.
In assay [16] the test system is HEK293. In words: cells. In kind it is functional, cell-based. Conditions: Homo sapiens. The source holds these as a separate data set.
The target of another assay is Protein Wnt-3a (Mus musculus, UniProt P27467). In words: antagonism of Wnt3a pathway luciferase reporter – Wnt-LIGHT cells, luminescence, selectivity assay for Gli-SUFU antagonist project, dose response (AID 651570).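 Also: Wnt-LIGHT reporter cells stimulated with conditioned medium from Wnt3a-producing cells.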 In kind it is functional. To be noted: read-out: IC50_Mean.
Chain of Protein Wnt-3a (P27467 whole entry): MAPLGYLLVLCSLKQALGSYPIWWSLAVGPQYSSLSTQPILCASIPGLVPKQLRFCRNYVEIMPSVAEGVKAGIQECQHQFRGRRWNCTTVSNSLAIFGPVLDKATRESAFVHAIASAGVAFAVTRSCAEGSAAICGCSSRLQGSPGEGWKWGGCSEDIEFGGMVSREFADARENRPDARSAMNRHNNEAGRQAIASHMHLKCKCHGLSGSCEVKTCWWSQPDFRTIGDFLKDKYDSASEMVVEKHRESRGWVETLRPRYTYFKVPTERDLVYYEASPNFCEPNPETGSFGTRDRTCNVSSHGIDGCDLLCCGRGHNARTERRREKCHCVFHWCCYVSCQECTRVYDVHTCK
The target of assay [17] is Nuclear receptor subfamily 5 group A member 2 (Homo sapiens, UniProt O00482). In kind it is functional, cell-based.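 Also: HEK293T cells transfected with LRH-1 and a StAR promoter luciferase reporter; potency for inhibitors that lower LRH-1 driven reporter light.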
Chain of Nuclear receptor subfamily 5 group A member 2 (O00482 whole entry): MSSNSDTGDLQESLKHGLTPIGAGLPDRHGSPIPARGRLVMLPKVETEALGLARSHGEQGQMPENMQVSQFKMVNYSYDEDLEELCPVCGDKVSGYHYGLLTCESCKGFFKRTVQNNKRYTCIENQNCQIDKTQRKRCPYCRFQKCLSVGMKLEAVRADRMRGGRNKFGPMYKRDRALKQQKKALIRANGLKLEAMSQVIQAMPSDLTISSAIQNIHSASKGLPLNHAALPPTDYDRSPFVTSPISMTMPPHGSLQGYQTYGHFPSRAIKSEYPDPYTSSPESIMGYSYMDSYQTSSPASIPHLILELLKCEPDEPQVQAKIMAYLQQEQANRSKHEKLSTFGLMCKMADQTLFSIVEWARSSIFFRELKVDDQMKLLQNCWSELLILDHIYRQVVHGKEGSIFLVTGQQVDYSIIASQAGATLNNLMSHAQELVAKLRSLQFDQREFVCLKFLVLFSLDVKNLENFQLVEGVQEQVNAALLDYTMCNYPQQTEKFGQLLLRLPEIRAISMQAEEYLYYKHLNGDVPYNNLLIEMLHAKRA
The next assay addresses Steroidogenic factor 1 (Homo sapiens, UniProt Q13285). Briefly: Counterscreen for inverse agonists of the liver receptor homolog-1 (LRH-1; NR5A2): Luminescence-based cell-based high throughput dose response assay to identify inverse agonists of the Steroidogenic Factor 1 Nuclear Receptor (SF1; NR5A1). In kind it is functional. In general terms: Counterscreens check selectivity or assay interference.

A short description of assay [18]: nonselective StAR promoter luciferase inhibitors – cell-based, luminescence, luciferase reporter, counter-screen for LRH-1 inverse agonist project, dose response (AID 651969). In kind it is functional.
In assay [19] the target is Adenosylmethionine-8-amino-7-oxononanoate aminotransferase (Mycobacterium tuberculosis, UniProt P9WQ81). Briefly: Mycobacterium tuberculosis BioA enzyme inhibitor Measured in Biochemical System Using Plate Reader - 2163-02_Inhibitor_Dose_CherryPick_Activity. In kind it is functional, Mycobacterium tuberculosis UT205.
Chain of Adenosylmethionine-8-amino-7-oxononanoate aminotransferase (P9WQ81 whole entry): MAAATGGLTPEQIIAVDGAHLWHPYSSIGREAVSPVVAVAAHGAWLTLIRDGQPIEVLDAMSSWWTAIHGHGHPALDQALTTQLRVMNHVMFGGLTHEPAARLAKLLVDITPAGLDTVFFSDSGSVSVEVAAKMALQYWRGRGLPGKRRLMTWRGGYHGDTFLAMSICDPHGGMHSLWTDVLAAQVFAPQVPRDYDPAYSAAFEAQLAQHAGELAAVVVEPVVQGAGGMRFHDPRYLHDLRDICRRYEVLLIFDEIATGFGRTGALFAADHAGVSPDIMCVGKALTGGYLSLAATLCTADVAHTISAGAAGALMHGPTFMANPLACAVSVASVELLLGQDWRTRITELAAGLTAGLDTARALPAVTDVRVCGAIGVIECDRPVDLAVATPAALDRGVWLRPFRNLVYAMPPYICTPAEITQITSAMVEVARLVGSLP
Assay [20] deals with Ras and Rab interactor 1/Tyrosine-protein kinase ABL1 (Homo sapiens, UniProt P00519+Q13671). In kind it is functional.

Activity calls are given as the source filed them.

T1 sequence (Q9UBE0 whole entry): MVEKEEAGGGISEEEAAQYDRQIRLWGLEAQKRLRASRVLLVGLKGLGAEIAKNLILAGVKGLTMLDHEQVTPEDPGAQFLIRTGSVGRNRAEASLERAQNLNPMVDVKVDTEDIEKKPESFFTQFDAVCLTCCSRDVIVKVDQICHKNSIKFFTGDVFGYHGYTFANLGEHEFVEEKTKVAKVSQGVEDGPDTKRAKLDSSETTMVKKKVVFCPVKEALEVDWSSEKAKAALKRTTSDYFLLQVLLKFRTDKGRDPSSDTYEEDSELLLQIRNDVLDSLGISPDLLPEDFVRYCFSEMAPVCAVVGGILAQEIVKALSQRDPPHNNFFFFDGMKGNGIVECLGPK
T1 sequence (Q9UBT2 whole entry): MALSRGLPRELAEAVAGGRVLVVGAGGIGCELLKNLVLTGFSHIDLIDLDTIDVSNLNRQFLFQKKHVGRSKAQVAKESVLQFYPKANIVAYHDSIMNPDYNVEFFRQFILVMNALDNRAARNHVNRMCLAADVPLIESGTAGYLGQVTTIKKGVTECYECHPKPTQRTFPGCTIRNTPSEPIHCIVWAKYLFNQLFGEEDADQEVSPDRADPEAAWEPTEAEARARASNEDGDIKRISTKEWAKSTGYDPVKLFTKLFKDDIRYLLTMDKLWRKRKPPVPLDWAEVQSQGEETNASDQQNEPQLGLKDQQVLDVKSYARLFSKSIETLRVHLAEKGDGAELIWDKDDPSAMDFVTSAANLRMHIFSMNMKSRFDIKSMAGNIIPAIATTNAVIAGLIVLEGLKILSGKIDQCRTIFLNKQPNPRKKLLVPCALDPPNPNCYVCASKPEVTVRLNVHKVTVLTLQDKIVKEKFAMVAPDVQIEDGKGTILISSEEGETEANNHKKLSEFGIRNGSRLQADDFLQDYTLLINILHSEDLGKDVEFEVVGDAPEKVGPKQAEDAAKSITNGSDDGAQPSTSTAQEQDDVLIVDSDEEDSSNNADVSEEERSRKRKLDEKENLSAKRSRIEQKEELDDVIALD
Chain of Steroidogenic factor 1 (Q13285 whole entry): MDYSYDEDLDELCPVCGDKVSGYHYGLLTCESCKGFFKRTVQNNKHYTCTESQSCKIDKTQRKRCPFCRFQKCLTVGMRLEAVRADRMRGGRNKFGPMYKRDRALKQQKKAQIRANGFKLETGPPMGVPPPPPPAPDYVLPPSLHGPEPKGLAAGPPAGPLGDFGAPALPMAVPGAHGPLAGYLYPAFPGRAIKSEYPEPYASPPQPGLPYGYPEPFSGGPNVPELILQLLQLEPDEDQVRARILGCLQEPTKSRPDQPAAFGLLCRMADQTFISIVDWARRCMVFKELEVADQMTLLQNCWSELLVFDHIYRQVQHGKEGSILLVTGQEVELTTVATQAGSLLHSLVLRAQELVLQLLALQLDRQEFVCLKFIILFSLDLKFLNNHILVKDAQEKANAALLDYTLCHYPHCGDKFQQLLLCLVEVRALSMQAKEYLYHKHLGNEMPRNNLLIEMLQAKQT
Chain of Polyadenylate-binding protein 1 (P11940 whole entry): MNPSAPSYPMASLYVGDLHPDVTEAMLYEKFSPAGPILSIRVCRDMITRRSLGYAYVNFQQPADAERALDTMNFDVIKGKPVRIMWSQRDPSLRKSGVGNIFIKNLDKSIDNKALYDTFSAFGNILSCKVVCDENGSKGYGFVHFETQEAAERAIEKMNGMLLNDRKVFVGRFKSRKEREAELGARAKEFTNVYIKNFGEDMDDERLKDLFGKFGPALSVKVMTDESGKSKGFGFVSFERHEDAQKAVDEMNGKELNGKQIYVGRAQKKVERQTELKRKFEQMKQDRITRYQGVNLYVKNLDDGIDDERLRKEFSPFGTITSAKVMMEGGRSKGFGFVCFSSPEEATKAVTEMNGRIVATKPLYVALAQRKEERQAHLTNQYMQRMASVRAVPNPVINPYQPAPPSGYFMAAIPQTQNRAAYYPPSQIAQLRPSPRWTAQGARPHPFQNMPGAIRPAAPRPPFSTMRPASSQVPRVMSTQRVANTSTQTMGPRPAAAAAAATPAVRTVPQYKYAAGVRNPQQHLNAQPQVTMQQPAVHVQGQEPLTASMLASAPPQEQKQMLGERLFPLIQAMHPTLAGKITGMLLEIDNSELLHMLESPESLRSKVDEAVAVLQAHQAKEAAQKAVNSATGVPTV

For `COc1cc(/C=N/NC(=O)c2ccccc2O)ccc1OCC(=O)Nc1ccccc1`, the IC50 in assay [1] was 15.4 µM (active); at SUMO-activating enzyme [2], 16.4 µM (active); at SUMO-activating enzyme [3], 8.71 µM (active); in assay [4], > 100 µM (inactive); in the assay on H9c2, > 79 µM (inactive); in assay [5], 5.46 µM (active). Further, the IC50 is 1.25 µM (active) in assay [6], 26.2 µM (inactive) in assay [7] and 4.1 µM (active) in [8].

With `COc1ccccc1OCc1ccc(C(=O)Nc2ccccc2F)cc1`, the IC50 was > 99 µM (inactive) in assay [9], 8.88 µM (active) on Caspase-3 and > 99 µM (inactive) in assay [10].

Take `Cc1nc2cc(N3CCN(C)CC3)c(NC(=O)Cc3ccccc3)cc2c(=O)n1Cc1ccccc1`: the EC50 in the assay with HEK293 [11] was > 20 µM (inactive); in [14], 9.39 µM (active). Moreover, the IC50 with HEK293 [12] was 8.5 µM (active); with HEK293 [13], > 20 µM (inactive); in the assay with HEK293 [15] it was > 20 µM (inactive); in the assay on HEK293 [16], > 20 µM (inactive); at Protein Wnt-3a, 37.5 µM (inactive).

Consider `COc1cc2c(cc1OC)CN(C(=O)CN1C(=O)NC3(CCC(C)CC3)C1=O)CC2` (centres undefined), for which the IC50 is 13.4 µM (inactive) in [17], 11.3 µM (inactive) on Steroidogenic factor 1 and 35.9 µM (inactive) in assay [18].

On to `Cn1c(=O)c2c(nc(OCc3cccnc3)n2Cc2ccccc2)n(C)c1=O`, for which the AC50 in [19] is 1 µM (active).

For `CC(=O)Nc1ccc(NC(=O)C2CCN(C(=O)c3cccs3)CC2)cc1`, in [20], the IC50 is 1.9 µM (active).

A word on the EC50: it is the concentration needed to bring the measured effect to its halfway point. As usually defined, the AC50 is the concentration at which the activity in the assay is half-maximal.
